Data taken from a melting point compilation (Tetko et al.; mined from patent text by program, amines drawn as free bases though some values may be those of a salt).

Compound | melting point
Cc1ccc(F)cc1C(=O)Nc1ccc(C(=O)N2Cc3cccn3-c3ncccc32)cn1 | 226 to 234 °C
Cc1cn2cccc(N[C@@H]3c4ccccc4C[C@H]3O)c2n1 (relative stereo) | 188 to 190 °C
COCCCCC(=O)c1ccc([N+](=O)[O-])c(Cl)c1 | 54.5 to 56 °C
CNC(=O)N1C(=O)CC(c2ccc(OC)c(OC3CCCC3)c2)N1C (stereo unspecified) | 65 to 68 °C
CCON=CNC(=O)c1ccc(C2=NOC(c3cc(Cl)cc(Cl)c3)(C(F)(F)F)C2)cc1C (stereo unspecified) | 143 to 146 °C
CC#CCOc1cc(Oc2c(F)cccc2F)ncn1 | 79.8 °C
O=C(CCCCCC1(C(=O)O)CC1)CCCCCC1(C(=O)O)CC1 | 122 to 123 °C
CCC(=O)N(CC)c1ccc(C(=O)C=CN(C)C)cc1 | 75 to 77 °C
Clc1cc2c(cc1Cl)Nc1ccccc1C(NCc1cccnc1)=N2 | 209 to 210 °C
CCOC(=O)c1cc2c(F)cc(F)cc2[nH]1 | 153 to 154 °C
Cc1ccc(Oc2ccccc2-n2cnnn2)c(O)c1 | 157 to 160 °C
CCC1OCC(O)CO1 (stereo unspecified) | 62 to 68.5 °C
N#Cc1cc([N+](=O)[O-])ccc1N1CCNCC1CCO (stereo unspecified) | 100 to 102 °C
CCCc1nc2c(N)nc(C)c(C)c2n1CCCCS(C)(=O)=O | 152 to 153 °C
CNC(=NCCSCc1nc[nH]c1C)S(=O)(=O)O | 162 to 164 °C
CC(=O)NC[C@H]1CN(c2ccc(C3C=CS(=O)(=O)CC3)cc2)C(=O)O1 (stereo partly specified) | 187 to 189 °C
COC(=O)c1cc(O)n[nH]1 | 229 to 231 °C
O=C(O)CCCCCCCC(=O)Nc1cc(Cl)ccc1O | 117 to 118 °C
CCc1nccc(NC(=O)Cc2ccc(O)cc2)c1Cl | 158 to 161 °C
OC(CN1CCC(O)(Cc2ccccc2)CC1)c1ccc(F)cc1 (stereo unspecified) | 144 to 146 °C
N[C@@H]1CN2CCC1CC2 | 118 to 121 °C
COc1ccc(-c2nc(C)c(C(=O)Nc3nnn[nH]3)s2)cc1 | 275 to 278 °C
CCOC(=O)c1cccc2nc(S)n(Cc3ccc(-c4ccccc4C#N)cc3)c12 | 225 to 227 °C
O=C(NCCn1cncn1)c1ccc(Cl)nc1 | 186 to 188 °C
N#CCc1ccccc1O | 118 °C
COc1ccc(C2=NN(Cc3cccc(C(=O)NC4CCCC4)c3)C(=O)CC2)cc1OC | 179 °C

Compound | melting point
O=C(CCc1ccccc1)N1CCN(C(=O)C(Cc2ccc(O)cc2)NS(=O)(=O)c2cccc3cnccc23)CC1 (stereo unspecified) | 172 to 178 °C
CCCn1c(=O)c2c(nc(/C=C/c3ccc(OC(=O)c4ccccc4)c(OC(=O)c4ccccc4)c3)n2C)n(CCC)c1=O | 231 °C
CN(C(=O)C1CCC1)c1cccc(-c2ccnc3c(C#N)cnn23)c1 | 157 to 158 °C
CC12CCC3c4ccccc4CCC3C1CCC2NCc1ccccc1 (stereo unspecified) | 71 to 74 °C
CCOC(=O)C1=C(CSC(C)=O)NC(C)=C(C#N)C1c1cccc([N+](=O)[O-])c1 (stereo unspecified) | 155 to 157 °C
CNC(=O)n1ncc2ccc(NC(=O)/C=C/c3ccc(C(C)(C)C)cc3)cc21 | 208 to 209 °C
CCCCCOc1cc2c(cc1C(=O)Oc1ccc(C(=O)O)cn1)C(C)(C)CCC2(C)C | 132 to 133 °C
CCOCC1CN2CCC1CC2 (stereo unspecified) | 73 to 77 °C
N#Cc1ccc(N2CCOCC2)c2ccccc12 | 128 to 129 °C
CCCCC(C)C(O)CCc1cc(O)c(O)cc1Br (stereo unspecified) | 68 to 71 °C
CC(=O)NC[C@H]1CN(c2cc(F)c(N3CCC4(CC3)CO4)c(F)c2)C(=O)O1 | 160 to 162 °C
COc1cc2nc(N3CCN(C(=O)C=Cc4ccoc4)CC3)nc(N)c2cc1OC | 252 to 253 °C
CCCCNS(=O)(=O)c1ccc(OC)c(NC(C)=O)c1 | 115 to 117 °C
O=C(c1cc(-c2ccc(Cl)cc2)c(N2CCOCC2)s1)c1ccc(Cl)cc1Cl | 110 °C
O=C(NCC1CCN(CC2(C(=O)O)CC2)CC1)N1C(=O)C2(CCCC2)c2ccccc21 | 186 °C
O=C(NC1CCCCC1)c1ccc(-c2ccc3nnn(Cc4ccc5ncccc5c4)c3n2)cc1F | 172 to 175 °C
Cn1cc(C(O)CO)c2c3c(c(-c4ccccc4Cl)cc21)C(=O)NC3=O (stereo unspecified) | 179 to 183 °C
Cc1cc(OCc2ccccc2)c2cc(C(N)=O)[nH]c2c1 | 185 to 187 °C
CCOC(=O)Cn1c(=O)c2cc(F)c(-c3ncc[nH]3)cc2n(Cc2ccc(Cl)cc2Cl)c1=O | 192 to 193 °C
Cc1ccc(S(=O)(=O)Nc2cccc3c2Nc2ccc(O)cc2CO3)s1 | 184 to 188 °C
CC(O)(CSc1ccc(F)cc1)C(=O)O (stereo unspecified) | 73 to 75 °C
Cc1nc(C)c(-c2ccnc(Nc3cccc([N+](=O)[O-])c3)n2)s1 | 176 to 178 °C
O=c1occ(-c2ccccc2)n1-c1ccc(F)cc1 | 145 to 147 °C
Cc1scc2c1N(C(=O)NCCN1CCC(CCCCN3CCCCC3)CC1)c1ccccc1NC2=O | 186 to 187 °C
Oc1cc2c(c(Cl)c1Cl)C(O)C(C1CCCC1)C2 (stereo unspecified) | 158 to 160 °C
CCC(CC)n1c(=O)sc2c(=O)[nH]c(N)nc21 | > 232 °C

Compound | melting point
O=C1OC2=C(COc3ccccc32)C1=O | 146 to 148 °C
NCC1COc2cc(F)cc(-c3ccccc3F)c2N1 (stereo unspecified) | 77 °C
CC(C)CC(=O)N[C@@H](Cc1ccccc1)C(=O)CSCc1ccco1 | 94 to 95 °C
CC(c1ccccc1)N1CC(C(C(N)=O)(c2ccccc2)c2ccccc2)C1 (stereo unspecified) | 153 to 154 °C
COc1cc2c(c(Cl)c1Cl)C(=O)C(C)(c1ccc([N+](=O)[O-])cc1)C2 (stereo unspecified) | 179 to 180 °C
CCN(CC)Cc1csc(N)c1C(=O)c1ccc(Cl)cc1 | 78 to 80 °C
N#Cc1ccc(OCc2ccsc2)cc1F | 63 to 65 °C
C=C(C)C(=O)OCCOc1ccc(-c2ccccc2)cc1 | 59 to 60 °C
Cc1noc2cc3c(cc12)C1(CO3)C(=O)N(Cc2cnccn2)c2ccccc21 (stereo unspecified) | 170 to 173 °C
N#CCCC(=O)c1ccncc1 | 53.5 to 55 °C
CS(=O)(=O)Nc1ccccc1NC1=CC=NC(Nc2ccc3c(c2)CNCCS3)N1Cl (stereo unspecified) | 141 to 143 °C
Cc1cc(SCc2ccc(OC3CCc4cc(Cl)ccc43)cc2)ccc1OCC(=O)O (stereo unspecified) | 130 to 131 °C
CCCn1nc(C(=O)O)cc1CC(C)(C)NC(=O)OC(C)(C)C | 151 to 152 °C
c1ccc(Nc2nc(NC3CCC3)c3[nH]cnc3n2)cc1 | 312 to 314 °C
Cc1ccc(C(=O)NCc2ccccc2)cc1-c1nc(NCCCN(C)C)nc2c1CNC(=O)N2c1c(F)cccc1F | 141 to 144 °C
CN(Cc1ccccc1)S(=O)(=O)CC#N | 68 to 70 °C
COc1ccc2cc3ncc(C#N)c(Nc4ccc(Cl)cc4Cl)c3cc2c1 | 215 to 217 °C
O=C(NCCc1ccccn1)c1ccccc1-c1ccccc1CNS(=O)(=O)c1ccccc1 | 131 °C
O=C(N[C@H](Cc1ccc(C(F)(F)F)cc1)[C@@H](O)c1ccc(F)c(F)c1)c1ccc(F)c2ccccc12 (racemic) | 197 to 198 °C
COc1cc(Br)c(CCC#N)cc1OC | 78 to 80 °C
CCc1ccc2c(c1)C(O)(c1ccccn1)CC(C)(C)CO2 (stereo unspecified) | 84 °C
CCOC(=O)Cn1c2cccccc-2c(C(C)=O)c1=O | 162 to 165 °C
O=C(O)Cn1c(=O)c2ccccc2n(CCCCN2CCC(OC(c3ccccc3)c3ccccc3)CC2)c1=O | 184 to 186 °C
CCO[PH](=O)C#Cc1c(C(C)C)c2ccccc2n1-c1ccc(F)cc1 (stereo unspecified) | 80 to 82.5 °C
COC(=O)C(Oc1nc(OC)cc(OC)n1)C(C)(OCc1ccccc1)c1ccccc1 (stereo unspecified) | 115 to 117 °C
Cc1coc(-c2ccc3c(c2)c2cc(-c4ccc(Cl)cc4Cl)c(=O)n(C)c2n3C)n1 | 258 to 261 °C

Compound | melting point
COC(=O)c1cc(-c2ccccc2)cc2c1C(C)(C)CCC2(C)C | 118 °C
CCOC(=O)C(C)c1ccc2c(c1)C(=O)c1ccccc1CS2 (stereo unspecified) | 91 to 93 °C
N#Cc1cnn2c(C(F)(F)F)cc(-c3ccc(Cl)cc3Cl)nc12 | 180 °C
CC(C)c1cc(C(C)C)c(CC(=O)c2ccc(-c3ccccc3)c(OS(N)(=O)=O)c2-c2ccccc2)c(C(C)C)c1 | 129 to 132 °C
COc1ccc(S(=O)(=O)O)cc1OC(=O)c1ccccc1 | 139 to 140 °C
O=c1cc(N2CCOCC2)[nH]c2c(-c3ccc([N+](=O)[O-])c4c3oc3ccccc34)cccc12 | 247 °C
CCc1c(C(=O)c2cccc(Cl)c2Cl)c2cccc(Br)c2n1CCCN(C)S(C)(=O)=O | 111 °C
CCn1c(=O)n(C2CCN(C(C)(C)CCCN3C(=O)c4ccccc4S3(=O)=O)CC2)c2ccccc21 | 182 to 185 °C
CC(O)CN1CCC(c2noc3cc(F)ccc23)CC1 (stereo unspecified) | 45 to 47 °C
CC(C)Cn1c(=O)n(C)c(=O)c2c(SCCCC(N)=O)n(Cc3cccc4ccccc34)cc21 | 162 to 165 °C
CCOC(=O)C(=NOCc1ccc(OCc2nc(-c3ccccc3)oc2C)cc1)c1ccc(OC)cc1 | 102 to 103 °C
Cc1ccc(OCC2CO2)c([N+](=O)[O-])c1[N+](=O)[O-] (stereo unspecified) | 121 to 123 °C
Clc1cc(NC2CCCC2)nc(NC2CCCC2)n1 | 94 to 98 °C
O=C1C(c2cccc(Br)c2)n2cncc2CN1Cc1ccccn1 (stereo unspecified) | 52 to 56 °C
COc1ccccc1OCC(=O)NCCO[N+](=O)[O-] | 63 to 64 °C
COC(=O)CCCCCCCCCCCCCCCCCCCCCN1C(=O)c2ccccc2C1=O | 88.5 to 90.5 °C
CS(=O)(=O)c1ccc(C(CC2CCCC2)C(=O)Nc2cnc(C(C#N)=NO)cn2)cc1Cl (stereo unspecified) | 130 to 133 °C
O=C1c2ccccc2C(=O)N1Cc1cc2cc(Cl)cc(Br)c2o1 | 194 to 198 °C
CCOC(=O)c1cccc(-c2ccc3c(n2)C(O)CC3)c1 (stereo unspecified) | 46 to 47 °C
CCC(c1oc2ccccc2c(=O)c1-c1cccc(F)c1)n1cnc2c(N)ncnc21 (stereo unspecified) | 102 to 107 °C
Cn1cc(-c2ccc3nnc(C(F)(F)c4ccc5ncccc5c4)n3n2)cn1 | 200 °C
COC(=S)C1CCn2c(C(=O)c3ccccc3)ccc21 (stereo unspecified) | 69 °C
OC1CSC(Oc2cccnc2-c2nnn[nH]2)C(O)C1O (stereo unspecified) | 170 °C
